Measured values published in patent US20260344665A1, “FUNGICIDAL COMPOUND” (priority 2022, published 2026).

How the values were obtained:
[1] = system: Puccinia recondita f. sp. tritici; assay: Puccinia recondita f. sp. tritici / wheat / leaf disc curative (brown rust); assay type: in vivo; conditions: for % reduction fungal growth: wheat
Method: Leaf disks or leaf segments of various plant species were cut from plants grown in the greenhouse. The cut leaf discs or segments were placed in multiwell plates (24-well format) onto water agar. The leaf disks were sprayed with a test solution before (preventative) or after (curative) inoculation. Compounds to be tested were prepared as water solutions (max. 10 mg/ml) which were diluted to the appropriate concentration with 0.025% Tween20 just before spraying. The inoculated leaf discs or segments were incubated under defined conditions (temperature, relative humidity, light, etc.) according to the respective test system. A single evaluation of disease level was carried out 3-9 days days after inoculation, depending on the pathosystem. Percent disease control relative to the untreated check leaf discs or segments was then calculated.
Puccinia recondita f. sp. tritici/Wheat/Leaf Disc Curative (Brown Rust)
Wheat leaf segments cv. Kanzler were placed on agar in multiwell plates (24-well format). The leaf segments were inoculated with a spore suspension of the fungus. Plates were stored in darkness at 19 °C and 75% rh. The formulated test compound diluted in water was applied 1 day after inoculation. The leaf segments were incubated at 19 °C and 75% rh under a light regime of 12 h light/12 h darkness in a climate cabinet and the activity of a compound was assessed as percent disease control compared to untreated when an appropriate level of disease damage appeared in untreated check leaf segments (6-8 days after application).

Puccinia recondita = assay: Mixture with malonomicin, leaf disc, Puccinia recondita curative; assay type: in vivo; conditions: foliar, 192 h, read-out: control of fungal growth
Source text: An additional ingredient having pesticidal activity, for instance fungicidal activity may result in an unexpected synergistic activity. […] The action to be expected E for a given active ingredient combination obeys the so-called COLBY formula and can be calculated as follows (COLBY, S. R. “Calculating synergistic and antagonistic responses of herbicide combination”. Weeds, Vol. 15, pages 20-22; 1967): • ppm=milligrams of active ingredient (=a.i.) per liter of spray mixture • X=% action by active ingredient A) using p ppm of active ingredient • Y=% action by active ingredient B) using q ppm of active ingredient.
According to COLBY, the expected (additive) action of active ingredients A)+B) using p+q ppm of active ingredient is:
In mathematical terms, synergism corresponds to a positive value for the difference of (O-E). In the case of purely complementary addition of activities (expected activity), said difference (O-E) is zero. A negative value of said difference (O-E) signals a loss of activity compared to the expected activity.
A stock solution for oligosaccharide compound according to the present invention was produced in water plus 0.025% Tween®20. Malonomicin was produced according to Law et al, 2018 (Nature Catalys is | VOL 1 | DECEMBER 2018 | 977-984). A stock solution of malonomicin was produced in water plus 0.025% Tween®20.
Assays to test efficacy of mixtures of the compound of Formula (I) in combination with malonomicin on the control of fungal pathogens in a leaf disc assay were designed for two 24 well plates.
Table 8 and 9: Outline of 24 well testplate (1) and testplate (2) including concentration of compounds sprayed per well. The upper number in the cell indicates the oligosaccharide compound of the present invention concentration (ppm), the lower number malonomicin concentration (ppm). Column (1) holds a dilution series of compound of Formula (I), row (2-D) hold a dilution series of malonomicin. Well 2-D-(1) represents an untreated check. This design was applied for tests including Puccinia recondita (EPPO code: PUCCRE) with preventive and curative spray timing.
A first set of master plates with 1× concentrated spray solution of the compound of Formula (I) stock diluted in water with concentrations according to Table 8, Table 9, Table 11 and Table 12, respectively, was prepared. Each well contained 0.025% Tween®20. Accordingly, a second set of master plates with 1× concentrated malonomicin stock diluted in water was prepared. Each well of the second set contained 0.025% Tween®20. Leaf segments placed on agar in 24 well plates are sprayed with 8 ul of solution from the master plate containing compound of Formula (I) and the leaf segments were let to dry, followed 2 hours later by 8 ul of solution from the master plate containing malonomicin. After second sprays have dried, leaf segments are infected with fungal spores to obtain a preventive application timing. Alternatively, leaf segments infected one day before spray of the compounds are used, resulting in a curative spray timing. In addition, several plates were produced where leaf segments were sprayed 2× in absence of test compound (with only Tween®20), representing the untreated check samples. For each leaf segment percent leaf coverage of disease symptoms was assessed. Percent leaf coverage reduction relative to the untreated check was calculated. Efficacy of the mixtures was tested in duplicate and on different fungal species. Reported efficacy values are the average of two replicate results.
Puccinia recondita (EPPO Code: PUCCRE) with Curative Spray Timing.
Wheat (cultivar Kanzler) leaf segments are placed on agar in multiwell plates (24-well format). The leaf disks are then inoculated with a spore suspension of the fungus. One day after inoculation the test solution is sprayed (8 ul per well). After appropriate incubation the activity of a compound is assessed 8 dpi (days after inoculation) as curative fungicidal activity

SMILES: CC(=O)NC1C(OCC(OC2OC(CO)C(O)C(O)C2O)C2OC(OC3C(O)C(CO)OC(OC4(CO)OC(C(O)CO)C(O)C4OC4OC(CO)C(O)C(O)C4O)C3O)C(O)C(O)C2OC2OC(C(O)CO)C(O)C(O)C2OC2OCC(OC(N)=O)C(O)C2O)OC(CO)C(O)C1O (centres unmarked) [compound of Formula (I)]
- curative activity to control Puccinia recondita [1]: curative (infection of pathogen followed by application of compound) activity
- % reduction fungal growth ([1]; 0.80 ppm): 0%
- % reduction fungal growth ([1]; 2.50 ppm): 0%
- % reduction fungal growth ([1]; 7.40 ppm): 0%
- % reduction fungal growth ([1]; 22.00 ppm): 90%
- % reduction fungal growth ([1]; 67.00 ppm): 100%
- % reduction fungal growth ([1]; 200.00 ppm): 100%
- inhibition of growth at 3.13 µg/mL (Puccinia recondita; Formula (I) 3.13 ppm solo): 0%
- inhibition of growth at 6.25 µg/mL (Puccinia recondita; Formula (I) 6.25 ppm solo): 0%
- inhibition of growth at 12.5 µg/mL (Puccinia recondita; Formula (I) 12.5 ppm solo): 10%
- inhibition of growth at 25 µg/mL (Puccinia recondita; Formula (I) 25 ppm solo): 10%
- inhibition of growth at 50 µg/mL (Puccinia recondita; Formula (I) 50 ppm solo): 20%
- inhibition of growth at 100 µg/mL (Puccinia recondita; Formula (I) 100 ppm solo): 70%
- inhibition of growth at 200 µg/mL (Puccinia recondita; Formula (I) 200 ppm solo): 80%
